Source: paper PMC6920997, “Total Phenolic and Flavonoid Content and Biological Activities of Extracts and Isolated Compounds of Cytisus villosus Pourr” (Biomolecules, 2019)
Converted amounts (≈) assume the structure as drawn.

Assays:
Candida albicans = assay: Antifungal assay C. albicans; format: cell-based; settings: pure compounds
Protocol: (§1) Extracts and pure compounds were tested for their antimicrobial activity against Staphylococcus aureus, methicillin-resistant S. aureus (MRSA), Escherichia coli, Pseudomonas aeruginosa, and Mycobacterium intracellulare. The antifungal activities were evaluated against a panel of pathogenic fungi, including Candida albicans, C. glabrata, C. krusei, Aspergillus fumigatus, and Cryptococcus neoformans, associated with opportunistic infections.

Pseudomonas aeruginosa = assay: Antibacterial assay P. aeruginosa; format: cell-based; settings: pure compounds
Protocol: as §1

κ opioid receptor = κ opioid receptor (Homo sapiens, UniProt P41145); format: binding
Sequence of κ opioid receptor (P41145 whole entry): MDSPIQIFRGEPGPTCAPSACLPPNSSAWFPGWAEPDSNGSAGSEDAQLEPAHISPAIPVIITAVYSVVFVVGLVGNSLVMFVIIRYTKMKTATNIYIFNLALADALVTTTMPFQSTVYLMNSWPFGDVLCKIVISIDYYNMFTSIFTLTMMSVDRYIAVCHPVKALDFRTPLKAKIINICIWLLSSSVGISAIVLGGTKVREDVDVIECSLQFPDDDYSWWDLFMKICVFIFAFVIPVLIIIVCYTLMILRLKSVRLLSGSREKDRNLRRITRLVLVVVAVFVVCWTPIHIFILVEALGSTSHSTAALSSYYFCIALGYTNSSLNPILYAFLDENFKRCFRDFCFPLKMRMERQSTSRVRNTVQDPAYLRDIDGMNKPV

iNOS = assay: Inhibition of iNOS (intracellular NO production) in RAW 264.7 macrophages; format: cell-based; settings: Mus musculus, RAW264.7; RAW 264.7 cells; NA = no activity at 25 µg/mL (pure compounds) or 100 µg/mL (extracts)
Protocol: The extracts and isolated compounds of C. villosus were evaluated in terms of their interaction with cellular targets related to inflammation and metabolic disorders, such as iNOS and NF-κB. The inhibition of intracellular NO production as a result of iNOS activity was assayed in mouse macrophages (RAW 264.7cells). Cytotoxicity of test samples to macrophages was also determined in parallel to check if the inhibition of iNOS was due to cytotoxic effects.

NF-κB = assay: Reporter gene assay for the inhibition of NF-κB; format: cell-based; settings: PMA-treated cells, luciferase reporter; NA = no activity at 25 µg/mL (pure compounds) or 100 µg/mL (extracts); read-out: Inhibition of NF-kB IC50
Protocol: Reporter gene assay for the inhibition of NF-κB Activity was performed as described earlier. In brief, cells transfected with NF-κB luciferase plasmid construct were plated in 96-well plates at a density of 1.25 × 10^5 cells/well. After 24 h, cells were treated with the test compounds and, after incubating for 30 min, phorbol 12-myristate 13-acetate (PMA) (Sigma-Aldrich, Burlington MA, USA) (70 ng/mL) was added and further incubated for 6−8 h. Luciferase activity was measured as described above. Percent decrease in luciferase activity was calculated relative to the vehicle control. Parthenolide (Sigma-Aldrich, Burlington MA, USA) was used as a positive control.

μ opioid receptor = μ opioid receptor (Homo sapiens, UniProt P35372); format: binding
Sequence of μ opioid receptor (P35372 whole entry): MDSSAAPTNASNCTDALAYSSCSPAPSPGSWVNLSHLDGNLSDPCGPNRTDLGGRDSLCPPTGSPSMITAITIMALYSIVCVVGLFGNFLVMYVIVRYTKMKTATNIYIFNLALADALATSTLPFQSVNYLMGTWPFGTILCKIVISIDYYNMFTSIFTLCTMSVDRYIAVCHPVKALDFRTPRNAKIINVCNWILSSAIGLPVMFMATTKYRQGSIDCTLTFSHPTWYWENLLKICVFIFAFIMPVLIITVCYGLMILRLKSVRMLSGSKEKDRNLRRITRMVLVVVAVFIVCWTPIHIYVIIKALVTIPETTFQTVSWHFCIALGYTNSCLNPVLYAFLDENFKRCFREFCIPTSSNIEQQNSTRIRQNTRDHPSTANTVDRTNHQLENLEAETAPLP

P. falciparum (D6 Clone) = assay: Antimalarial assay, chloroquine-sensitive D6 clone; format: cell-based, Plasmodium falciparum; settings: selectivity index = IC50 for cytotoxicity/IC50 for antimalarial activity
From the text: (§2) The in vitro antileishmanial and antitrypanosomal assays were done on cell cultures of L. donovani promastigotes, axenic amastigotes, THP1-amastigotes, and Trypanosoma brucei trypomastigotes by Alamar Blue assays. The conditions for seeding the THP1 cells, exposure to the test samples, and evaluation of cytotoxicity were the same as described in parasite-rescue and transformation assay. IC50 and IC90 values were computed from the dose response curves using XLfit software (XLfit 5.3.1, IDBS analytical, Boston MA, USA). DFMO (difluoromethylornithine) was used as the positive control. The antiprotozoal activity of C. villosus extracts and isolated compounds were evaluated in vitro against L. donovani promastigotes, axenic amastigotes, and intracellular amastigotes in THP1 cells. The extracts and some isolated compounds were also evaluated against T. brucei trypomastigote forms. All the extracts and compounds were simultaneously tested against THP1 cell for determination of general cytotoxicity. The extracts and isolated compounds were also evaluated for their antimalarial activity against chloroquine-sensitive (D6, Sierra Leone) and chloroquine-resistant strains (W2, Indochina) strains of Plasmodium falciparum. Furthermore, they were tested for cytotoxicity against the Vero cell line.

Staphylococcus aureus = assay: Antibacterial assay S. aureus; format: cell-based; settings: pure compounds
Protocol: as §1

Escherichia coli = assay: Antibacterial assay E. coli; format: cell-based; settings: pure compounds
Protocol: as §1

P. falciparum (W2 Clone) = assay: Antimalarial assay, chloroquine-resistant W2 clone; format: cell-based, Plasmodium falciparum; settings: selectivity index = IC50 for cytotoxicity/IC50 for antimalarial activity
From the text: as §2

δ opioid receptor = δ opioid receptor (Homo sapiens, UniProt P41143); assay: Radioligand displacement δ opioid receptor; format: binding
Sequence of δ opioid receptor (P41143 whole entry): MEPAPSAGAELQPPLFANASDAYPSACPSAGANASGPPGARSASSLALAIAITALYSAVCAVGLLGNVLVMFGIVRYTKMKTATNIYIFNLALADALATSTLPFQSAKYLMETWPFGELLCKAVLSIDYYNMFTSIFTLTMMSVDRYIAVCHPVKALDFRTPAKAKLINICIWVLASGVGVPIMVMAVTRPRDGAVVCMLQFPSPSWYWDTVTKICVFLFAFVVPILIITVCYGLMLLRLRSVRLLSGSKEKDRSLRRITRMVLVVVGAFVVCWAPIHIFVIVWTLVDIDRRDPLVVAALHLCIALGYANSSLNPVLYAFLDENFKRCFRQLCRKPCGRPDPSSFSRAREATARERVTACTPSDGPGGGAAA

Cryptococcus neoformans = assay: Antifungal assay C. neoformans; format: cell-based; settings: pure compounds
Protocol: as §1

[1] = Cytotoxicity against Vero cell line (antimalarial counterscreen); format: cell-based; settings: African green monkey
From the text: as §2

[2] = Cytotoxicity assay (neutral red) SK-OV-3; format: cell-based; settings: human, SK-OV-3 cells, NA = No activity at 100 μM
Protocol: (§3) Each assay was performed in 96-well tissue culture-treated microplates. […] All cell lines were obtained from the American Type Culture Collection (ATCC, Rockville, MD, USA). Each assay was performed in 96-well tissue culture-treated microplates. Cells were seeded at a density of 25,000 cells/well and incubated for 24 h. Samples at different concentrations were added and cells were again incubated for 48 h. At the end of incubation, the cell viability was determined using neutral red dye according to a modification of the procedure of Borenfreund et al.. IC50 values were determined from dose−response curves of percent growth inhibition against test concentrations. Doxorubicin was used as a positive control, while DMSO was used as the negative (vehicle) control.

[3] = Cytotoxicity assay (neutral red) KB; format: cell-based; settings: human, KB cells, NA = No activity at 100 μM
Protocol: as §3

[4] = Cytotoxicity assay (neutral red) BT-549; format: cell-based; settings: human, BT-549 cells, NA = No activity at 100 μM
Protocol: as §3

[5] = Cytotoxicity assay (neutral red) SK-MEL; format: cell-based; settings: human, SK-MEL cells, NA = No activity at 100 μM
Protocol: as §3

[6] = Cytotoxicity assay (neutral red) LLC-PK1; format: cell-based; settings: pig, LLC-PK1 cells (noncancerous kidney cells), NC = Not cytotoxic
Protocol: as §3

[7] = DPPH radical scavenging assay; settings: mean ± SD of three measurements
Protocol: The antioxidant activity of the extracts and pure isolated compounds was determined by applying the 2,2-diphenyl-1-picrylhydrazyl (DPPH) radical scavenging method.

Q: For `O=c1cc(-c2ccccc2)oc2cc(O)cc(O)c12` [Compound 2, chrysin], which IC50 (Candida albicans) is on record?
A: > 20 µg/mL

Q: What about the IC50 (Pseudomonas aeruginosa) of the same molecule?
A: > 20 µg/mL

Q: What about the “Opioid Receptors (%) κ radioligand displacement” value (κ opioid receptor) of the same molecule?
A: 12.8%

Q: What about the IC50 (iNOS) of the same molecule?
A: > 25 µg/mL

Q: And the IC50 (NF-κB)?
A: 38 µg/mL (≈ 149 µM)

Q: What about the “Opioid Receptors (%) μ radioligand displacement” value (μ opioid receptor) of the same molecule?
A: 12.2%

Q: And the “SI (first SI column of Table 7, presumably D6)” value (P. falciparum (D6 Clone))?
A: 1

Q: And the IC50 (Staphylococcus aureus)?
A: > 20 µg/mL

Q: And the IC50 (Escherichia coli)?
A: > 20 µg/mL

Q: And the “SI (second SI column of Table 7, presumably W2)” value (P. falciparum (W2 Clone))?
A: 1

Q: What about the “Opioid Receptors (%) δ radioligand displacement” value (δ opioid receptor) of the same molecule?
A: 8.7%

Q: And the IC50 (Cryptococcus neoformans)?
A: > 20 µg/mL

Q: And the IC50 [1]?
A: > 4.76 µg/mL

Q: For `COc1cccc2c1C(=O)c1c(O)c3c(c(O)c1C2=O)C[C@@](O)(C(=O)CO)C[C@@H]3O[C@H]1C[C@H](N)[C@H](O)[C@H](C)O1` [doxorubicin, Doxorubicin], which IC50 at 48 h [2] is on record?
A: 2 µg/mL (≈ 3.68 µM)

Q: What about the IC50 at 48 h [3] of the same molecule?
A: 1.3 µg/mL (≈ 2.39 µM)

Q: What about the IC50 at 48 h [4] of the same molecule?
A: 0.9 µg/mL (≈ 1.66 µM)

Q: And the IC50 at 48 h [5]?
A: 0.8 µg/mL (≈ 1.47 µM)

Q: What about the IC50 at 48 h [6] of the same molecule?
A: 1.2 µg/mL (≈ 2.21 µM)

Q: For `O=C1O[C@H]([C@@H](O)CO)C(O)=C1O` [Ascorbic acid], which “DPPH Scavenging IC50” value [7] is on record?
A: 43 ± 6 µg/mL
